Laboratory results reported in patent publication US5384405A, “Process for making N-hydroxyl-2-thio-ouinazolin-4-ones” (Olin Corporation, priority 1994, dated 1995).
≈ marks a conversion by molar mass, not a printed value. Like-named read-outs stand apart in the source and are kept apart here.

Experiments:
[1] = tested on: Candida albicans; experiment: Minimum inhibitory concentration (MIC), serial dilution in broth, Candida albicans; type: cell-based; details: 120 h, read-out: MIC, A = Candida albicans
Protocol: (§1) Solutions of the experimental compounds in dimethyl sulfoxide and an aqueous solution of sodium pyrithione were serially diluted in nutrient broth (Tryptic Soy Broth for bacteria and Sabouraud Dextrose Broth for fungi) in microtiter plates. Equal volumes of a broth suspension of bacteria (10^6 CFU/ml) or fungi (10^5 cells or spores/ml) were added to each dilution, and the plates were incubated at 37° C. (bacteria and yeast) or 28° C. (molds). Bacteria, yeast, and molds were incubated two, five, and seven days respectively before determining the highest inhibitory dilution.

[2] = tested on: Aureobasidium pullulans; experiment: Minimum inhibitory concentration (MIC), serial dilution in broth, Aureobasidium pullulans; type: cell-based; details: 168 h, read-out: MIC, B = Aureobasidium pullulans
Protocol: as §1

[3] = tested on: Aspergillus niger; experiment: Minimum inhibitory concentration (MIC), serial dilution in broth, Aspergillus niger; type: cell-based; details: 168 h, read-out: MIC, C = Aspergillus niger
Protocol: as §1

[4] = tested on: Fusarium; experiment: Minimum inhibitory concentration (MIC), serial dilution in broth, Fusarium; type: cell-based; details: 168 h, read-out: MIC, D = Fusarium
Protocol: as §1

[5] = UV stability (photolysis in aqueous solution, immersion well photochemical apparatus); type: physicochemical
Protocol: The UV stability of IIa was evaluated using a immersion well photochemical apparatus equipped with a Hanovia 450 Watt medium pressure lamp. An aqueous solution (100 ppm in KH2 PO4 buffer pH=7) was irradiated at 25° C. with air agitation for a period of 110 minutes. The rate of photolysis was monitored by UV spectroscopy. Aliquots were taken through a side port of the apparatus into an amber vial and the absorption at 325 nm was measured. A sodium pyrithione aqueous solution (i.e., sodium OMADINE® biocide) was irradiated similarly for comparative purposes.

[6] = yeast, 37° C., five days, Sabouraud Dextrose Broth
[7] = fungi, Sabouraud Dextrose Broth, molds: 28° C., seven days
[8] = molds: 28° C., seven days, Sabouraud Dextrose Broth

Structure (SMILES)	MIC [1, 6] [µg/mL]	MIC [2, 7] [µg/mL]	MIC [3, 8] [µg/mL]	MIC [4, 8] [µg/mL]	half-life ([5]; first order, 100 ppm in KH2PO4 buffer pH=7, 25° C., 450 Watt medium pressure lamp, absorption at 325 nm, read-out: photodecomposition T1/2) [min]	MIC [4] [µg/mL]	MIC [1] [µg/mL]	MIC [2] [µg/mL]	MIC [3] [µg/mL]	photodecomposition time (decomposed in) ([5]; aqueous solution, same conditions as IIa (pH=7, 25° C., 450 Watt lamp)) [s]
Cn1c(=O)c2ccccc2n(O)c1=S [Compound IIa, 1-HYDROXY-3-METHYL-2-THIOXO-1,2-DIHYDROQUINAZOLINE-4(3H)-ONE]	< 2	< 2	< 2	128 (≈ 615 µM)	55					
O=c1[nH]c(=S)n(O)c2ccccc12 [Compound IIg]	64 (≈ 330 µM)	128 (≈ 659 µM)	1020 (≈ 5270 µM)	512 (≈ 2640 µM)						
C=CC(=O)On1c(=S)n(C)c(=O)c2ccccc21 [Compound IIj]	4 (≈ 15.3 µM)	4 (≈ 15.3 µM)	8 (≈ 30.5 µM)	16 (≈ 61 µM)						
Cn1c(=O)c2ccccc2n(O)c1=S.[Na] [IIa-Na, 1-hydroxy-3-methyl-2-thioxo-1,2-dihydroquinazoline-4(3H)-one, sodium salt]						4				
Cn1c(=O)c2ccc(Cl)cc2n(O)c1=S [IIc]	< 2	< 2	4 (≈ 16.5 µM)	64 (≈ 264 µM)						
Cc1ccc2c(c1)c(=O)n(C)c(=S)n2O [IId]	< 2	4 (≈ 18 µM)	< 2	128 (≈ 576 µM)						
O=c1c2ccccc2n(O)c(=S)n1-c1ccccc1 [IIe]	16 (≈ 59.2 µM)	16 (≈ 59.2 µM)	32 (≈ 118 µM)	64 (≈ 237 µM)						
C=CCn1c(=O)c2ccccc2n(O)c1=S [IIf]	4 (≈ 17.1 µM)	16 (≈ 68.3 µM)	16 (≈ 68.3 µM)	8 (≈ 34.1 µM)						
COn1c(=S)n(C)c(=O)c2ccccc21 [IIh]	256 (≈ 1150 µM)	512 (≈ 2300 µM)	512 (≈ 2300 µM)	512 (≈ 2300 µM)						
CC(=O)On1c(=S)n(C)c(=O)c2ccccc21 [IIi, 1-ACETOYLOXY-3-METHYL-2-THIOXO-1,2-DIHYDROQUINAZOLINE-4(3H)-ONE]	2 (≈ 7.99 µM)									
Cn1c(=O)c2ccccc2n(OC(=O)c2ccccc2)c1=S [IIk]	512 (≈ 1640 µM)	256 (≈ 820 µM)	512 (≈ 1640 µM)	512 (≈ 1640 µM)						
C=C(C)C(=O)On1c(=S)n(C)c(=O)c2ccccc21 [IIl]	128 (≈ 463 µM)	4 (≈ 14.5 µM)	32 (≈ 116 µM)	512 (≈ 1850 µM)						
Cn1c(=O)c2ccccc2n(OC(=O)O)c1=S [IIm]	4 (≈ 15.9 µM)	8 (≈ 31.7 µM)	8 (≈ 31.7 µM)	16 (≈ 63.4 µM)						
CNC(=O)On1c(=S)n(C)c(=O)c2ccccc21 [IIn, 1-N-METHYLCARBAMATE-3-METHYL-2-THIO-1,2-DIHYDROQUINAZOLINE-4(3H)-ONE]						16 (≈ 60.3 µM)	4 (≈ 15.1 µM)	8 (≈ 30.2 µM)	8 (≈ 30.2 µM)	
CCOC(=O)c1ccccc1N(O)C(=S)NC [Ib]	8 (≈ 31.5 µM)	8 (≈ 31.5 µM)	8 (≈ 31.5 µM)	128 (≈ 503 µM)						
CNC(=S)N(O)c1cc(Cl)ccc1C(=O)OC [Ic]	< 2	4 (≈ 14.6 µM)	8 (≈ 29.1 µM)	128 (≈ 466 µM)						
CNC(=S)N(O)c1ccc(C)cc1C(=O)OC [Id]	8 (≈ 31.5 µM)	8 (≈ 31.5 µM)	8 (≈ 31.5 µM)	512 (≈ 2010 µM)						
CCOC(=O)c1ccccc1N(O)C(=S)Nc1ccccc1 [Ie]	16 (≈ 50.6 µM)	32 (≈ 101 µM)	64 (≈ 202 µM)	64 (≈ 202 µM)						
C=CCNC(=S)N(O)c1ccccc1C(=O)OCC [If]	4 (≈ 14.3 µM)	16 (≈ 57.1 µM)	16 (≈ 57.1 µM)	16 (≈ 57.1 µM)						
On1ccccc1=S [sodium pyrithione, reference compound]										15
